“Also recorded” adds a separate entry of the source.
Key:
[1] = test system: protein aggregates in eukaryotic cells; test: depolymerization function in eukaryotic cells; assay type: cell-based; settings: FIGS. 7-16
From the text: The inventors then selected three peptides PLPR3 (SEQ ID NO: 6), ATXN8OS (SEQ ID NO: 7), and GRWD1 (SEQ ID NO: 8) to verify the depolymerization function in eukaryotic cells with the experimental scheme shown in FIG. 6.

[2] = previously identified, PCT/CN2021/111683; cited from earlier work
G3BP1 aggregates = G3BP1 aggregates (Homo sapiens, UniProt Q13283); test: in vitro dissolving of protein aggregates by purified peptides; assay type: biochemical
Sequence of G3BP1 aggregates (Q13283 whole entry): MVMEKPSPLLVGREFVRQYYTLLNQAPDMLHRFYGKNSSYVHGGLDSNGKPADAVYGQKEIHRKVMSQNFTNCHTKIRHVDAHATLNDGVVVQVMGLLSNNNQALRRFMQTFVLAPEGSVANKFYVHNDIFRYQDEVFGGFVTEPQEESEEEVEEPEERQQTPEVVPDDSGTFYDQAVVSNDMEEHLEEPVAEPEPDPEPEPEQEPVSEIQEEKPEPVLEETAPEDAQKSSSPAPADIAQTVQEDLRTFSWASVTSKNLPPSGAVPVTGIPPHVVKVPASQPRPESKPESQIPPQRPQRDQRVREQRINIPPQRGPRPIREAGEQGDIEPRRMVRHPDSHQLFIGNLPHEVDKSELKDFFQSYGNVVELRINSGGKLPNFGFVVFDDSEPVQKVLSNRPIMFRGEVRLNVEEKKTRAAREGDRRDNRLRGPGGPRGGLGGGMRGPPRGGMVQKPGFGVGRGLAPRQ
Procedure: Given that the charged amino acid residues have the highest percentage in Champ-E, the inventors first tested the function of the charged amino acid residues in dissolving protein aggregates. The inventors generated a series variant of Champ-E with mutation of aspartic acid residues and tested their capability of dissolving protein aggregates in vitro and in cells. The variant peptides were expressed in E. coli and then purified (see FIG. 3). The purified variant peptides were then added to in vitro protein solution that is capable of forming protein aggregates.

Substance | depolymerization effect in eukaryotic cells [1] | also measured
ATXN8OS: SEQ ID NO: 7, PCPGAPCCSLVATGSRVPFSGLKEEEEEDGEDDEEEEEEG; fragment of human protein | have depolymerization effect | –
C19L2: SEQ ID NO: 10, LPDVNERIEQFSQEHSVKKKKKKDKHSKKAKKEKKKKSKK; few or no P/G | have depolymerization effect | –
CACNA1F: SEQ ID NO: 12, DMEEEEEEEEEEEEEEEEEGAGGVELLQEVVPKEKVVPIP; few or no polar residues | almost no depolymerization effect | –
CHD3(E2K): SEQ ID NO: 14, RKKKKKKTKRRKKGKGDGGQKQVKQKSSATLLLTWGLKDV; CHD3 with E mutated to K | still has certain depolymerization effect | –
CHD3: SEQ ID NO: 13, REKKEKKTKRRKKGEGDGGQKQVEQKSSATLLLTWGLEDV; mixture of positively and negatively charged residues | some depolymerization effect | –
Champ-E: SEQ ID NO: 1, MTEPQEESEEEVEEPEERQQTPEVVPDDSGTFYDQTVSNDLE; charged amphipathic peptide | – | capable of dissolving protein aggregation [2]: capable of dissolving protein aggregation
GRWD1: SEQ ID NO: 8, SNRLMMLRMHNLHGTKPPPSEGSDEEEEEEDEEDEEERKP; fragment of human protein | have depolymerization effect | –
PELP1: SEQ ID NO: 15, GGPPALEEDLTVININSSDEEEEEEEEEEEEEEEEEEEEE | – | dissolving G3BP1 protein aggregates (G3BP1 aggregates; in vitro, FIG. 17): capable of dissolving G3BP1 protein aggregates
PLPR3: SEQ ID NO: 6, PMAEEEEEEEDEEEEEEEEEEEDEGPAPPSLYPTVQARPG; fragment of human protein | have depolymerization effect | –
ZNF326: SEQ ID NO: 11, DEPIEEEEDEDEEEEAEEVGEVEEVEEVEEVREGGIEGEG; few or no polar residues | almost no depolymerization effect | –
“Champ”-Q: SEQ ID NO: 5, TQPQQQSQQQVQQPQQRQQTPQVVPDDSGTFYDQTVSNDLQ; uncharged variant of Champ-E | – | capability of dissolving protein aggregates in vitro (G3BP1 aggregates; purified peptide added to in vitro protein solution capable of forming protein aggregates, FIG. 4): could no longer dissolve protein aggregates; also recorded: no obvious depolymerization effect

From patent US20250154207A1, “PEPTIDES FOR DISSOLVING PROTEIN AGGREGATES AND METHODS THEREOF” (REJUKON BIOPHARM INC., priority 2022, published 2025)
